In article PMC3776131 (Bioorganic & medicinal chemistry letters, 2013):
Like-named read-outs stand apart in the source and are kept apart here. Where a SMILES comes first, the peptide text is derived from it. [ ]: non-standard residue; d: D form. Dmt = Cc1cc(O)cc(C)c1C[C@H](N)C(=O)O; Tic = O=C(O)[C@@H]1Cc2ccccc2CN1

Legend:
μ and κ receptor [1] = experiment: guinea pig ileum
δ receptor [2] = biological target: T1, δ receptor (Mus musculus, UniProt P32300); experiment: mouse vas deferens
μ opioid receptors [3] = biological target: T2, μ opioid receptors (Rattus norvegicus, UniProt P33535); experiment: μ opioid receptor binding, displacement of [3H]DAMGO from rat brain membranes; conditions: relative to 4a
T2 sequence (P33535 whole entry): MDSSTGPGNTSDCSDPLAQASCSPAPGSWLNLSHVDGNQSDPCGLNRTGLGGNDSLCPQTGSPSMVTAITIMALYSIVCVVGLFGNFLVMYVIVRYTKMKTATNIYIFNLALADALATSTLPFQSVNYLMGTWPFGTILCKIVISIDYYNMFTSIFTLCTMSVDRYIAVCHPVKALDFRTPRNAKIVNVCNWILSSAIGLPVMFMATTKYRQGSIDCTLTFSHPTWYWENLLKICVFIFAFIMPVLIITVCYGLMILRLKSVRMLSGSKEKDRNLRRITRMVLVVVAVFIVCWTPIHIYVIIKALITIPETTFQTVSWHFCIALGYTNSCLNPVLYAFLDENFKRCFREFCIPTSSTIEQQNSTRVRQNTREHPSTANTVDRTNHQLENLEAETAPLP

δ receptor [4] = biological target: T1, δ receptor; conditions: cited from earlier work
μ and κ receptor [5] = conditions: cited from earlier work
[6] = cited from earlier work
[7] = given i.c.v.; cited from earlier work
μ opioid receptors [8] = biological target: T2, μ opioid receptors; conditions: read-out: Ki^μ; [3H]DAMGO, rat brain membranes; cited from earlier work
κ opioid receptor = κ opioid receptor (Cavia porcellus, UniProt P41144); conditions: read-out: Ki^κ; [3H]U69,593, guinea pig brain membranes; cited from earlier work
Sequence of κ opioid receptor (P41144 whole entry): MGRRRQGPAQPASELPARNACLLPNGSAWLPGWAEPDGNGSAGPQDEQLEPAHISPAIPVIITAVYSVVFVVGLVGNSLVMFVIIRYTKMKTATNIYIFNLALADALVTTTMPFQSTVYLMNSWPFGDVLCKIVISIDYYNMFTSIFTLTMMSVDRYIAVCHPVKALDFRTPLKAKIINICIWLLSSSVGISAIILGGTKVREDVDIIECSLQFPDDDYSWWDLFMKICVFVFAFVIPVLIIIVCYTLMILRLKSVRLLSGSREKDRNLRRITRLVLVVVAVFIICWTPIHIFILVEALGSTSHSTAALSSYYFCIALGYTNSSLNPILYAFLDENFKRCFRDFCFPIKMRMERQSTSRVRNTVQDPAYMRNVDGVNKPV

T1 sequence (P32300 whole entry): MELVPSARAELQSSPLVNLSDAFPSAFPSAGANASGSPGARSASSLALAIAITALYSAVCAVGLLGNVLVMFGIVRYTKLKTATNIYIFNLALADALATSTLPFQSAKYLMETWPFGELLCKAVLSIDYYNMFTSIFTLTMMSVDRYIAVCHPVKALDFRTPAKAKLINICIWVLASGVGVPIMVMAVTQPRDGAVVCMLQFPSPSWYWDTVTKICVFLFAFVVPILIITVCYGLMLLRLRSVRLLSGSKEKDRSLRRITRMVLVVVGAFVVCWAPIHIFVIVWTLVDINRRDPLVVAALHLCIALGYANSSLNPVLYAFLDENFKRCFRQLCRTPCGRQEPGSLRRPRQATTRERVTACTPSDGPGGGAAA

Row | Compound | MVD Ke (δ antagonist activity) (δ receptor [4]) [nM] | GPI IC50 (agonist potency) (μ and κ receptor [5]) | type of activity in the MVD assay (δ receptor [4]) | other results
1 | Cc1cc(O)cc(C)c1C[C@H](N)C(=O)N1Cc2ccccc2C[C@H]1C(=O)N[C@@H](CCCCN)C(=O)N[C@@H](Cc1ccccc1)C(N)=O [Compound 6a, H-Dmt-Tic-Lys-Phe-NH2] (HELM PEPTIDE1{[Cc1cc(O)cc(C)c1C[C@H](N)C(=O)[*:2]].[Tic].K.F.[am]}$$$$V2.0) |  |  |  | type of activity in the GPI assay (μ and κ receptor [1]): μ agonist; Kb (δ receptor [2]): 2.18 ± 0.3 nM; type of activity in the MVD assay (δ receptor [2]): δ antagonist; fold lower μ receptor affinity than 4a (μ opioid receptors [3]): 16 fold
2 | H-[Dmt][Tic]FF-NH2 [Compound 4a] | 0.209 ± 0.037 |  |  | 
3 | H-Tyr-Ticψ[CH2NH]Phe-Phe-OH [Compound 3a] |  | inactive | potent δ antagonists | 
4 | H-Dmt-Ticψ[CH2NH]Phe-Phe-NH2 [Compound 5a] | 0.537 ± 0.026 |  |  | physical dependence upon chronic administration [6]: no physical dependence; analgesic tolerance upon chronic administration ([6]; compared with morphine): less analgesic tolerance than morphine; IC50 (μ and κ receptor [5]; read-out: GPI IC50 (agonist potency)): 7.71 ± 0.31 nM; analgesic effect in the rat tail flick test [7]: potent analgesic effect
5 | H-Y[Tic]FF-OH [Compound 1a] |  | inactive | potent δ antagonists | 
6 | H-[Dmt]-[Tic]-OH [Compound 8a] |  | Inactive |  | Ki (μ opioid receptors [8]): 1360 ± 160 nM; Ki (κ opioid receptor): > 1000 nM
7 | H-[Dmt][Tic]FF-OH [Compound 2a] | 0.196 ± 0.008 | inactive | potent δ antagonists | 
